Assay results taken from patent US11110126B2, “Method of expanding NK cell and composition for culturing” (Korea University Research and Business Foundation, priority 2015, dated 2021).

Legend:
NK cells [1] = test: Influence of ROS and/or p53 inhibitor on ex-vivo culture (expansion) of NK cells, cell number by hemocytometer; type: cell-based, human; settings: PBMC-derived NK cells cultured 10 days, then inhibitor at three-day intervals, counted after culture for 2 weeks; apocynin 400 μM, trolox 50 μM, pifithrin-α 1 μM, combination 50 μM trolox + 500 nM pifithrin-α
Protocol: Human blood was prepared, and subjected to centrifugation at 2500 rpm for 30 minutes using Ficoll (Ficoll-Paque™ PLUS, GE Healthcare). Then, peripheral blood mononuclear cells were isolated from a buffy coat. Afterward, a Jurkat cell line irradiated at 100 Gy and an EBV-LCL cell line were co-cultured with PBMCs:KL-1:EBV-LCL in a ratio of 1:0.5:0.5 in hRPMI medium prepared by adding 10% FBS and 1% penicillin/streptomycin to RPMI1640 medium in the presence of 500 U/ml IL-2, and the medium was exchanged with hRPMI medium supplemented with 500 U/ml IL-2 once for 2 to 3 days. To examine the influence of an ROS inhibitor on NK cells, the NK cells were cultured for 10 days under the conditions of Preparation Example 1. Then, 400 μM of an apocynin (Calbiochem), 50 μM of trolox (Santa Cruz) and 1 μM of pifithrin-α (Santa Cruz) were treated individually, and 50 μM trolox and 500 nM pifithrin-α were treated in a combination. The inhibitor was treated at three-day intervals, and a cell number was assessed after culture for 2 weeks. Here, the medium was exchanged with hRPMI medium added with 500 U/ml of IL-2 once for three days, and a cell number was calculated using a hemocytometer.

NK cells [2] = test: ROS generation in in vitro-expanded NK cells (DCF-DA flow cytometry); type: cell-based, human; settings: 100 μM DCF-DA; for order of ROS generation among treated groups: rank order of groups, lowest ROS first
Protocol: To measure ROS generated in in vitro-expanded NK cells, NK cells cultured by treatment with an inhibitor individually or in combination were harvested. 1×10^6 cells were seeded per well in a 24-well plate, cultured in a 5% CO2 incubator for 30 minutes, and then collected. The cells were washed once with 1 ml of PBS, followed by flow cytometry using 100 μM DCF-DA. The experiment was performed on a control group which was not treated, and experimental groups treated with apocynin, trolox, pifithrin-α and trolox+pifithrin-α, respectively, and the results are shown in FIG. 9.

In the case of `Cc1c(C)c2c(c(C)c1O)CCC(C)(C(=O)O)O2` (stereo not shown) [trolox, 6-hydroxy-2,5,7,8-tetramethylchroman-2-carboxylic acid], the “NK cell number compared with the control group” value (NK cells [1]) is reported as “statistically significant increase”, the “ROS generation compared with the control group” value (NK cells [2]; NK cells cultured with inhibitor) is reported as “significantly decreased” and the “order of ROS generation among treated groups” value (“order” below) (NK cells [2]) is reported as “trolox<pifithrin-α<trolox+pifithrin-α<apocynin<control group”.
With `Br.Cc1ccc(C(=O)Cn2c3c(sc2=N)CCCC3)cc1` [pifithrin-α, 2-(2-imino-4,5,6,7-tetrahydrobenzothiazol-3-yl)-1-p-tolylethanone hydrobromide] the “NK cell number compared with the control group” value (NK cells [1]) was “statistically significant increase” and the “order” value (NK cells [2]) was “trolox<pifithrin-α<trolox+pifithrin-α<apocynin<control group”.
For `COc1cc(C(C)=O)ccc1O` [apocynin, 1-(4-hydroxy-3-methoxyphenyl)-ethanone], the “NK cell number compared with the control group” value (NK cells [1]) was “statistically significant increase” and the “order” value (NK cells [2]) was “trolox<pifithrin-α<trolox+pifithrin-α<apocynin<control group”.
